Data reported in patent US10544110B2, “Small molecule inhibitors of the nuclear translocation of androgen receptor for the treatment of castration-resistant prostate cancer” (University of Pittsburgh-Of the Commonwealth System of …, priority 2013, dated 2020).

Key:
22Rv1 = test: Effectiveness against androgen-dependent prostate cancer cell line 22Rv1; assay type: cell-based
22Rv 1 xenograft tumors = test: 22Rv1 xenograft tumor growth; assay type: in vivo; settings: castrated SCID mice, daily IP 10 mg/kg and 75 mg/kg
Protocol: FIG. 11 is a graph showing the effect of compound JJ-450 at indicated concentrations on 22Rv 1 xenograft tumor volume. JJ-450 was injected i.p. daily.
22Rv 1 xenograft tumors were established in SCID mice by subcutaneous injection of 2×10^6 cells in Matrigel. Once the tumors reached ˜150 μL in volume, the mice were castrated and randomized into 3 groups for daily IP injection of vehicle (n=11), 10 mg/kg (n=11) and 75 mg/kg (n=11) groups. Injection of JJ-450 was initiated at time of castration. Tumor volumes were measured 3 times every week. […] Error bars, SEM.

LNCaP xenograft tumors = test: LNCaP xenograft tumor growth; assay type: in vivo; settings: castrated SCID mice, oral gavage 10 or 75 mg/kg or IP 10 mg/kg, started 2 weeks after castration
Protocol: FIG. 12 is a graph showing the effect of compound JJ-450 at indicated concentrations and administration route on LNCaP xenograft tumor volume. JJ-450 was administered 6 times, from Monday to Saturday, every week
LNCaP xenograft tumors were established in SCID mice by subcutaneous injection of 2×10^6 cells in Matrigel. Once the tumors reached ˜200 ul in volume, the mice were castrated and randomized into 4 groups: oral gavage of vehicle (n=6), oral gavage at 10 mg/kg (n=6), IP injection at 10 mg/kg (n=8), and oral gavage at 75 mg/kg (n=7) groups. Administration of JJ-450 was started 2 weeks after castration. Tumor volumes were measured twice every week. […] Error bars, SEM.

[1] = test system: AR transcriptional activity (PSA promoter activity); test: PSA luciferase assay in C4-2-PSA-rl cells (Dual-Glo luciferase system); settings: C4-2-PSA-rl cells
Protocol: C4-2-PSA-rl cells were seeded in 24-well plates such that they reached 75-80% cell monolayer density after 24 h. […] Each compound was tested in at least two independent experiments. Luciferase activity was assayed using the Dual-Luciferase® Reporter Assay System (Promega) using LMax II Microplate Reader (Molecular Devices). The luciferase assay results were acquired using SoftMax Pro5.45 software (Molecular Devices) and analyzed using GraphPad Prism. PSA6.1-luc activity was normalized to the Renilla luciferase activity. Relative luciferase activity was calculated as the quotient of androgen-induced PSA-firefly/Renilla luciferase activity. Since PSA promoter activity correlates to AR transcriptional activity, inhibition of AR will result in decreased PSA-luciferase activity.

| Compound | effectiveness against 22Rv1 (22Rv1) | 22Rv1 xenograft tumor growth (tumor volume) (22Rv 1 xenograft tumors) | LNCaP xenograft tumor growth (tumor volume) (LNCaP xenograft tumors) | IC50 ([1]; 24 h, 24 h treatment, 1 nM R1881, mean and SD of 2-6 independent experiments) [nM] | activity in PSA luciferase assay (in words) ([1]; up to 25 μM) |
| --- | --- | --- | --- | --- | --- |
| CNC(=O)c1ccc(N2C(=S)N(c3ccc(C#N)c(C(F)(F)F)c3)C(=O)C2(C)C)cc1F [MDV3100, enzalutamide] | ineffective | – | – | – | – |
| Cc1ccc(Cl)cc1N1CCN(C(=O)[C@@H]2C[C@@H]2c2ccc(F)cc2)CC1 (racemic) [JJ-450, (4-(5-Chloro-2-methylphenyl)piperazin-1-yl)((1RS,2SR)-2-(4-fluorophenyl)cyclopropyl)-methanone] | – | significantly inhibited tumor growth | significantly inhibited tumor growth | 2700 ± 1100 | significantly more potent than 1 |
